Values joined by “and” are separate entries in the source; they are usually repeats but may differ in a detail not shown here. Equal values may be shown once. Read-outs that look alike come from different tables or passages of the source.
How the values were obtained:
MAO-B = tested on: MAO-B; parameters: pIC50 MAO-B: unit not given here; settings: cited from earlier work; for MAO-B pIC50: data set compounds
MAO-A = settings: cited from earlier work; for pIC50 MAO-A: Table S8; for MAO-A pIC50: data set compounds
hMAO-B = target: T1, hMAO-B (Homo sapiens, UniProt P27338); experiment: hMAO-B inhibition, Amplex Red MAO assay, recombinant enzyme
T1 sequence (P27338 1-520): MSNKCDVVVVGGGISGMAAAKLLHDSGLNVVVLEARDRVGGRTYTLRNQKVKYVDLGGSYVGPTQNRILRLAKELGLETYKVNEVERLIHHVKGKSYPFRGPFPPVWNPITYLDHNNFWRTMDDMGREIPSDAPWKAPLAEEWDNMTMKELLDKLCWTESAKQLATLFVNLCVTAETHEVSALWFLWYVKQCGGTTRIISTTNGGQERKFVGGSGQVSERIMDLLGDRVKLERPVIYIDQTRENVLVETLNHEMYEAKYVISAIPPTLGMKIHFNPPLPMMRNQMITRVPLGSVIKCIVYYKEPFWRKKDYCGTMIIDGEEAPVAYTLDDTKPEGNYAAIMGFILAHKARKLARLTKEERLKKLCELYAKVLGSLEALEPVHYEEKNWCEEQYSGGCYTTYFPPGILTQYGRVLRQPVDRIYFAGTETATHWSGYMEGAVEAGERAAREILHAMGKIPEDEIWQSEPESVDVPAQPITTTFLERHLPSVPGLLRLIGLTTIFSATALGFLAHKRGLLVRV

hMAO-A = target: T2, hMAO-A (Homo sapiens, UniProt P21397); experiment: hMAO-A inhibition, Amplex Red MAO assay, recombinant enzyme
T2 sequence (P21397 1-527): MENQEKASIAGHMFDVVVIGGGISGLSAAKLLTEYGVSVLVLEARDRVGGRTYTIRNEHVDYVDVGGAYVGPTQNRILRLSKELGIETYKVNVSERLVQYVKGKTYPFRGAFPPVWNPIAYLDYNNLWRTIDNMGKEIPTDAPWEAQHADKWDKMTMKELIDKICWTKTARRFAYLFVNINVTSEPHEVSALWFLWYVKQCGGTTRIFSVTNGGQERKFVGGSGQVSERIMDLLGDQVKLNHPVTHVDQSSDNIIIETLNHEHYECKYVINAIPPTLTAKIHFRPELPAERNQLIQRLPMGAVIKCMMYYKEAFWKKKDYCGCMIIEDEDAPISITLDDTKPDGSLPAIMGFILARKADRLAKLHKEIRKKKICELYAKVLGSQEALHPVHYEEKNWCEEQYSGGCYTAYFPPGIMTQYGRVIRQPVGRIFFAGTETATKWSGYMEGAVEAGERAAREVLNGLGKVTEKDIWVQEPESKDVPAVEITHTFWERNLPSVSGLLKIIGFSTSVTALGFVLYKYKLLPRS

Structure (SMILES)	pIC50 MAO-B (MAO-B; Table S8)	pIC50 MAO-A (MAO-A)	also measured
O=c1oc2c(O)c(O)ccc2cc1-c1cc(Br)cs1 [Compound 147]	4.663	5.216	–
Cc1cc(=O)oc2cc(NC(=O)C(C)C)ccc12 [Compound 155]	4.937	4.611	–
COc1ccc(-c2cc3cccc(C)c3oc2=O)cc1 [Compound 37]	8.465	4.666	MAO-A pIC50 (MAO-A): < 5.0
Cc1ccc(C(=O)Nc2cc3cc(C)ccc3oc2=O)cc1 [Compound 41]	6.77	4.337	–
O=c1oc2ccc(O)cc2cc1-c1ccc(Br)cc1 [Compound 68]	7.495	4.892	–
O=c1oc2ccc(O)cc2cc1-c1ccccc1 [Compound 63]	5.47	4.524	–
Cc1cc(=O)oc2cc(NC(=O)CC(C)C)ccc12 [Compound 156]	6.357	4.339	–
O=C(O)COc1ccc2oc(=O)c(-c3ccc(Br)cc3)cc2c1 [Compound 73]	8.154	4.898	MAO-B pIC50 (MAO-B): > 6.5; MAO-A pIC50 (MAO-A): < 5.0
Cc1ccc2oc(=O)c(-c3cccc(O)c3)cc2c1 [Compound 23]	6.187	4.455	–
O=c1oc2cc(O)ccc2cc1-c1cc(Br)cs1 [Compound 146]	6.854	5.038	–
O=c1ccc2cc(/C=C/c3ccccc3)ccc2o1 [trans-6-Styrylcoumarin]	–	–	melting point: 134 to 135 °C; IC50 (hMAO-B): 0.11 µM; S.I. (hMAO-B selectivity index = IC50 (hMAO-A)/IC50 (hMAO-B)) (hMAO-B): >909.09; times more active on MAO-B than the best compound of the resveratrol derivative series of Kong et al. (hMAO-B; comparison with ref 13): 110; times more active on MAO-B than 3-phenylcoumarin (hMAO-B; ratio of IC50): 107; times more active on MAO-B than trans-resveratrol (hMAO-B; ratio of IC50): 267; IC50 (hMAO-A): > 100 µM
O=c1oc2ccccc2cc1-c1ccccc1 [3-Phenylcoumarin]	–	–	S.I. (hMAO-B selectivity index = IC50 (hMAO-A)/IC50 (hMAO-B)) (hMAO-B): >8.47; pIC50 MAO-B Exp. (hMAO-B; Table 3): 4.928; IC50 (hMAO-B; read-out: IC50 hMAO-B, recombinant hMAO-B expressed in baculovirus-infected BTI insect cells, n = 5): 11.8 µM; IC50 (hMAO-A): > 100 µM
O=c1oc2c(O)c(O)ccc2cc1-c1ccsc1 [Compound 144]	5.323	5.879	–
O=c1oc2c(O)cccc2cc1-c1cc(Br)cs1 [Compound 145]	–	5.207	–
Cc1ccc(-c2cc3cc(O)ccc3oc2=O)cc1 [Compound 14]	7.173	4.604	–
CCC(=O)Nc1ccc2c(C)cc(=O)oc2c1 [Compound 154]	–	4.015	–
O=c1oc2ccc3ccccc3c2cc1-c1cccc(O)c1 [Compound 82]	5.296	4.591	Experimental pIC50 (MAO-A inhibitors) (MAO-A; Table S12): 4.354
COc1ccc(-c2cc3cccc(OC)c3oc2=O)cc1 [Compound 55]	–	–	MAO-A pIC50 (MAO-A): < 5.0
Cc1cc(=O)oc2cc(NC(=O)c3ccco3)ccc12 [Compound 163]	5.3	4.521	MAO-A pIC50 (MAO-A): < 5.0

Structure (SMILES)	pIC50 MAO-B (MAO-B; Table S8)	pIC50 MAO-A (MAO-A)	also measured
O=c1oc2cc(O)ccc2cc1-c1ccsc1 [Compound 143]	5.071	5.118	–
Cc1cc(=O)oc2cc(NC(=O)CBr)ccc12 [Compound 158]	In	4.107	IC50 MAO-B (MAO-B; Table S8): In; MAO-A pIC50 (MAO-A): < 5.0
O=c1oc2c(O)cccc2cc1-c1ccsc1 [Compound 142]	–	4.754	–
O=c1oc2ccc3ccccc3c2cc1-c1ccc(O)cc1 [Compound 81]	6.337	4.626	–
O=c1oc2ccc(OC3CCCC3)cc2cc1-c1cccc(Br)c1 [Compound 72]	5.747	4.354	MAO-A pIC50 (MAO-A): < 5.0
Cc1ccc2oc(=O)c(-c3ccc([N+](=O)[O-])cc3)cc2c1 [Compound 88]	8.678	5.379	–
COc1cc(-c2cc3cc(C)cc(Br)c3oc2=O)cc(OC)c1OC [Compound 11]	5.311	4.506	MAO-A pIC50 (MAO-A): < 5.0
Cc1cc(=O)oc2cc(NC(=O)CC(C)(C)C)ccc12 [Compound 157]	6.602	–	–
COc1cc(C(=O)Nc2cc3ccccc3oc2=O)cc(OC)c1OC [Compound 47]	4.139	–	–
Cc1cccc(-c2cc3cc(C)ccc3oc2=O)c1 [Compound 18]	7.824	–	–
COc1ccc(NC(=O)c2cc3cc(C)ccc3oc2=O)cc1 [Compound 103]	6.527	–	–
Cc1cc(=O)oc2cc(NC(=O)c3ccccc3)ccc12 [Compound 159]	6.444	–	–
COc1cccc2cc(-c3ccccc3)c(=O)oc12 [Compound 34]	6.824	–	–
Cc1ccc2oc(=O)c(C(=O)Nc3ccc(Cl)cc3)cc2c1 [Compound 114]	7.955	–	MAO-B pIC50 (MAO-B): > 6.5
O=c1oc2ccccc2cc1-c1ccccc1 [Compound 40]	4.928	–	–
COc1cc(C(=O)Nc2c(O)c3ccccc3oc2=O)cc(OC)c1OC [Compound 92]	4.433	–	–
O=C(Nc1cc2ccccc2oc1=O)c1ccc(Cl)cc1 [Compound 45]	5.71	–	–
COc1ccc(-c2cc3cc(C)ccc3oc2=O)cc1OC [Compound 19]	8.564	–	–
CC(=O)COc1cccc(-c2cc3cc(C)ccc3oc2=O)c1 [Compound 25]	6.745	–	–

Structure (SMILES)	pIC50 MAO-B (MAO-B; Table S8)	pIC50 MAO-A (MAO-A)	also measured
Cc1ccc2oc(=O)c(C(=O)Nc3ccc(O)cc3)cc2c1 [Compound 109]	6.206	–	MAO-B pIC50 (MAO-B): < 6.5
Cc1cccc(NC(=O)c2coc3ccc(C)cc3c2=O)c1 [Compound 123]	7.767	–	–
O=C(Nc1cc2ccccc2oc1=O)c1cccs1 [Compound 94]	5.644	–	–
CC#CCNc1cc2ccccc2oc1=O [Compound 149]	4.922	–	–
COc1cccc2cc(-c3cccc(C)c3)c(=O)oc12 [Compound 141]	7.092	–	MAO-B pIC50 (MAO-B): > 6.5
Cc1ccc2oc(=O)c(C(=O)Nc3ccccc3Br)cc2c1 [Compound 104]	7.87	–	–
COc1ccc2occ(C(=O)Nc3ccccc3)c(=O)c2c1 [Compound 129]	7.379	–	–
Cc1cccc(NC(=O)c2cc3cc(C)ccc3oc2=O)c1 [Compound 99]	8.124	–	–
Cc1ccc2oc(=O)c(-c3ccccc3Br)cc2c1 [Compound 8]	7.957	–	MAO-B pIC50 (MAO-B): > 6.5
CC(=O)Nc1ccc2c(C)cc(=O)oc2c1 [Compound 153]	–	4.59	–
Cc1cc(=O)oc2cc(NC(=O)c3cccs3)ccc12 [Compound 162]	5.799	–	–
Cc1ccc2oc(=O)c(-c3ccccc3O)cc2c1 [Compound 24]	6.921	4.666	MAO-B pIC50 (MAO-B): > 6.5 and < 6.5
O=C(Nc1cc2ccccc2oc1=O)c1ccc(Cl)c(Cl)c1 [Compound 48]	5.225	–	–
Cc1ccc2oc(=O)c(-c3cccc(N)c3)cc2c1 [Compound 90]	8.658	–	–
COc1cccc(-c2cc3c(ccc4ccccc43)oc2=O)c1 [Compound 76]	8.613	–	MAO-B pIC50 (MAO-B): > 6.5
O=C(Nc1c(O)c2ccccc2oc1=O)C1CCCCC1 [Compound 97]	4.648	–	–
COc1ccc(-c2cc3cc([N+](=O)[O-])ccc3oc2=O)cc1 [Compound 54]	8.523	5.932	–
COc1ccc2oc(=O)c(C(=O)Nc3ccc(Cl)cc3)cc2c1 [Compound 121]	7.724	–	MAO-B pIC50 (MAO-B): > 6.5
